Values quoted from earlier work as cited in patent US20030158158A1, “Oct preparations” (priority 2000, published 2003).

Columns and labels:
[1] = not given; remark: listed apart in the source
[2] = not given; remark: listed apart in the source

C=C1/C(=C\C=C2/CCC[C@]3(C)[C@@H]([C@H](C)OCCC(C)(C)O)CC[C@@H]23)C[C@@H](O)C[C@@H]1O [OCT, 1α,25-dihydroxy-22-oxavitamin D3]
in vivo calcium elevating effect: low
decomposition in aqueous solutions [1]: rapidly decompose
in vitro differentiation-inducing activity [2]: strong
